The values that follow are results of earlier work, collected in patent US20080014285A1, “METHOD OF TREATING NEURODEGENERATIVE BRAIN DISEASE WITH A COMPOSITE COMPRISING […] NANOPARTICLES AND A […] COMPOUND” (priority 2006, published 2008).

The test system of data set [1] is glutamate-induced nitric oxide related neurotoxicity.
The conditions of data set [2]: systemic administration; patients with intracranial hypertension.
The conditions of data set [3]: peripheral administration, hypermagnesemia.
The subject of data set [4] is traumatic brain injury. The following applies: administration no more than 12 hours post-trauma.
Data set [5] has as its system dopaminergic neurons. The following applies: low dose; PD.

Where only a bound is given, the exact number is not on record here.

Regarding `CN(c1nc2ccccc2s1)C1CCN(C[C@H](O)COc2ccc(F)c(F)c2)CC1` [lubeluzole], the “glutamate-induced nitric oxide related neurotoxicity” value in data set [1] was “inhibits”. Turning to `O=S(=O)([O-])[O-].[Mg+2]` [magnesium sulfate], in data set [2], the “CSF ionized magnesium concentration” value was “failed to increase” and the “increase of plasma magnesium levels” value is greater than 50%. For the same compound, the “total and ionized CSF [Mg]” value in data set [3] was “only marginal increases”. For `[Mg+2]` [magnesium], in data set [4], the brain magnesium homeostasis entry is recorded as “restores brain magnesium homeostasis”; the “motor and cognitive outcome” value was “profoundly improves both motor and cognitive outcome”. On to VEGF, for which the “neuroprotection of dopaminergic neurons” value in data set [5] is reported as “neuroprotective”.
